Experimental data: publication PMC9024893, “1,2,4-Trioxolane and 1,2,4,5-Tetraoxane Endoperoxides against Old-World Leishmania Parasites: In Vitro Activity and Mode of Action” (Pharmaceuticals, 2022)
Like-named read-outs stand apart in the source and are kept apart here.

Experiments:
[1] = Cytotoxicity assay (MTT), J774A.1 cell line; type: cell-based; conditions: mouse
Experimental: (§1) Adherent BALB/c mouse macrophage cell line J774A.1 (ATCC® TIB 67™) and suspension human acute monocytic leukemic cell line THP-1 (ATCC® TIB-202™) were purchased from DSMZ, Germany were cultured and maintained in DMEM medium (Gibco) and RPMI 1640 (Sigma), respectively, supplemented with 10% FBS, 1% penicillin-streptomycin (Sigma) and L-glutamine 200 mM (Sigma), at 37 °C, 5% CO2.
(§2) Cell lines J774A.1 and THP-1 were used to estimate CC50 of the peroxides. Cells were plated in 96-well flat bottom culture plates (VWR) at 5 × 10^5 cells/mL. The monocytic cell line THP-1 was differentiated in RPMI medium with phorbol myristate acetate (PMA) (25 ng/mL; Sigma) for 24 h, followed by a washing step with RPMI medium. Six serial concentrations of the compounds (Table 3) were added in four replicates and the plates were incubated at 37 °C ± 1 °C, 5% CO2 for 48 h. An untreated control (cells in DMEM or RPMI medium plus 0.5% DMSO as vehicle) and blank (medium alone) were plated out in quadruplicate. After the incubation period, 20 µL/well of MTT [3-(4,5-dimethylthiazol-2-yl)-2,5-diphenyltetrazolium bromide] was added to a final concentration of 5 µg/mL in 1× phosphate-buffered saline (PBS, Merck), with an additional 4 h incubation at 36 °C, as previously described. The formazan salts were resuspended in 2-propanol (Merck) and the cell viability was determined by measuring absorbance with a Synergy ™HTX Multi Mode Microplate Reader at 595 nm (Dynex Technologies). The CC50 values were calculated fitting the data as a non-linear regression with variable slope using a dose-response inhibitory model, in the GraphPad Prism V 8.0 program. Each compound was tested in three independent assays.

[2] = Cytotoxicity assay (MTT), PMA-differentiated THP-1 cell line; type: cell-based; conditions: human
Experimental: as §1, §2

[3] = test system: L. infantum IMT151 promastigotes; assay: Promastigotes susceptibility assay (MTT), L. infantum; type: cell-based; conditions: Leishmania infantum, read-out: IC50 ± SD, L. infantum promastigotes
Experimental: (§3) Promastigote forms of strains of L. infantum (MHOM/PT/1988/IMT151) and L. donovani (MHOM/BD/2006/BD14) were cultured at 24 °C ± 1 °C in M199 medium (Sigma) supplemented with 20% foetal bovine serum (FBS, Sigma) and 1% penicillin-streptomycin (Sigma). L. infantum strain belongs to IHMT, Portugal cryobank collection and the L. donovani strain was kindly provided by Dr. Katrin Kuhls, Technical University of Applied Sciences Wildau, Germany. Promastigotes used for the experiments had 7 to 12 in vitro passages in culture after isolation from mice, in order to keep virulence, and were used when the stationary phase of growth was reached (day 5 to 6), corresponding to the highest promastigotes density.
(§4) For the determination of the antileishmanial activity and IC50, promastigotes of L. infantum and L. donovani were plated in 96-well flat bottom culture plates at a concentration of 5 × 10^6 parasites/mL and incubated with six serial concentrations of each compound (Table 3), in four replicates, including the control drugs, amphotericin B, miltefosine and pentamidine. One untreated control (parasites with M199 medium plus 0.5% DMSO as vehicle solution) and one blank (M199 medium alone) were also plated out in quadruplicate. After 48 h incubation at 24 °C ± 1 °C, the inhibitory activity of the compounds was evaluated using the MTT, as previously described, with an additional 4 h incubation at 36 °C. Results were expressed in terms of percentage of parasite viability relative to nontreated control and IC50 was calculated fitting the data as a non-linear regression with variable slope using a dose-response inhibitory model, in the GraphPad Prism V 8.0 program. Each compound was tested in three independent assays. […]

[4] = test system: L. donovani BD14 promastigotes; assay: Promastigotes susceptibility assay (MTT), L. donovani; type: cell-based; conditions: Leishmania donovani, read-out: IC50 ± SD, L. donovani promastigotes
Experimental: as §3, §4

[5] = test system: L. infantum IMT151 intracellular amastigotes; assay: Intracellular amastigotes assay in J774A.1 macrophages, L. infantum; type: cell-based; conditions: Leishmania infantum, read-out: IC50 ± SD, L. infantum intracellular amastigotes
Experimental: (§5) The intracellular assay using the macrophage J774A.1 cell line was performed with the compounds that presented best SI on the promastigote’s susceptibility assay. J774A.1 cells were adjusted to 2.5 × 10^5 cells/mL in supplemented DMEM medium. 200 μL/well of the cell suspension was placed in 16 well Lab Tek culture glass slides (Nunc), and incubated at 37 °C ± 1 °C, 5% CO2, for 3 h, to enable the cells to adhere to the slides. After a washing step with DMEM to discard non-attached cells, the cells were infected with 2.5 × 10^6 cells/mL promastigotes in a 10:1 parasite-host cell proportion for 24 h. Compounds and control drugs were added in two replicates of six serial concentrations (Table 3). As negative control, macrophages were cultivated in medium and DMSO, as vehicle solution (0.5% v/v). Slides were incubated for 48 h at the same temperature. After a washing step with 1× PBS (Sigma), slides were fixed and stained, and the infection index was calculated according to [34] by counting the number of intracellular amastigotes per 100 macrophages, in treated and untreated cells. Two independent experiments were performed to determine the amastigotes IC50 of each compound, which was calculated by fitting the data as a non-linear regression with variable slope using a dose-response inhibitory model, in the GraphPad Prism V 8.0 program. SI was determined as described above.

[6] = test system: L. donovani BD14 intracellular amastigotes; assay: Intracellular amastigotes assay in J774A.1 macrophages, L. donovani; type: cell-based; conditions: Leishmania donovani, read-out: IC50 ± SD, L. donovani intracellular amastigotes
Experimental: as §5

[7] = test system: L. infantum promastigotes; assay: Promastigotes DNA fragmentation (agarose gel); type: cell-based, Leishmania infantum; conditions: IC50 concentrations, 24 h
Experimental: 2 mM H2O2 was used as DNA damage inductor and non-treated cells were used as control. After centrifugation (10 min, 800× g) DNA was extracted using a commercial extraction kit (High Template DNA Preparation Kit, Roche, Germany), according to the manufacturer’s instructions.

[8] = J774A.1 macrophage cells, 48 h incubation, MTT, read-out: CC50 ± SD, J774A.1 Cell Line
[9] = PMA-differentiated THP-1 cells, 48 h incubation, MTT, read-out: CC50 ± SD, THP-1 Cell Line
[10] = 48 h incubation, MTT, read-out: CC50 ± SD, J774A.1 Cell Line
[11] = 48 h incubation, MTT, read-out: CC50 ± SD, THP-1 Cell Line
[12] = J774.A1, 48 h incubation, J774A.1 host cells

Structure (SMILES) | CC50 at 48 h [1, 8] [µM] | CC50 at 48 h [2, 9] [µM] | IC50 ([3]; 48 h incubation, MTT) [µM] | IC50 ([4]; 48 h incubation, MTT) [µM] | further results
O=S1(=O)N=C(OCC2CCC3(CC2)OOC2(O3)C3CC4CC(C3)CC2C4)c2ccccc21 (stereo not drawn) [LC129] | 323 ± 24.5 | 356 ± 31.4 | 266 ± 13.3 |  | 
C1C2CC3CC1CC(C2)C31OOC2(CCC(Nc3nnn[nH]3)CC2)O1 (stereo not drawn) [LC136, N-1H-1,2,3,4-Tetraazol-5-yl-dispiro[cyclohexane-1,3'-[1,2,4]trioxolane-5',2''-tricyclo[3.3.1.13,7]decan]-4-ylamine] | 113 ± 13.8 | 250 ± 4.1 | 434 ± 6.4 | 232 ± 28.4 | 
O=C1CCC2(CC1)OOC1(OO2)C2CC3CC(C2)CC1C3 [LC140] | 678 ± 29.9 | 1400 ± 76 | 258 ± 6.4 | 460 ± 38.3 | 
Cn1nnc(NCC2CCC3(CC2)OOC2(O3)C3CC4CC(C3)CC2C4)n1 (stereo not drawn) [LC131] | 34.1 ± 14.5 | 78.2 ± 14.1 | 321 ± 11.8 | 124 ± 19 | 
C1C2CC3CC1CC(C2)C31OOC2(CCC(Nc3nnn[nH]3)CC2)OO1 (stereo not drawn) [LC163] | 474 ± 83.5 | 753 ± 90.3 | 190 ± 21.6 | 532 ± 105 | 
O=C1CCC2(CC1)OOC1(O2)C2CC3CC(C2)CC1C3 (stereo not drawn) [LC50, Dispiro[cyclohexane-1,3'-[1,2,4]trioxolane-5',2''-tricyclo[3.3.1.13,7]decan]-4-one] |  |  |  |  | CC50 at 48 h [1, 10]: 519 ± 140 µM; CC50 at 48 h [2, 11]: 713 ± 18.4 µM; IC50 ([3]; 48 h): 378.9 ± 2.8 µM; IC50 ([4]; 48 h): 354 ± 8.4 µM
CCCCCCCCCCCCCCCCOP(=O)([O-])OCC[N+](C)(C)C [Miltefosine, reference compound] |  |  | 149 ± 3.5 | 24.2 ± 10 | CC50 at 48 h [1]: 94.4 ± 17.3 µM; CC50 at 48 h [2]: 100 ± 12.1 µM; IC50 [5, 12]: 16.8 ± 11.7 µM; IC50 [6, 12]: 13.3 ± 3 µM
OCC1CCC2(CC1)OOC1(OO2)C2CC3CC(C2)CC1C3 (stereo not drawn) [LC146] | 1465 ± 13 | 3220 ± 72 | 492 ± 22.7 | 793 ± 37.2 | 
c1ccc(-n2nnnc2OCC2CCC3(CC2)OOC2(O3)C3CC4CC(C3)CC2C4)cc1 (stereo not drawn) [LC132] | 45.8 ± 19.9 | 99.8 ± 16.4 | 13 ± 1.7 | 14.3 ± 5.5 | IC50 [5, 12]: 13.2 ± 5.2 µM; IC50 [6, 12]: 9.4 ± 0.1 µM; genomic DNA fragmentation [7]: did not produce DNA fragmentation
C1CC2(CCN1)OOC1(OO2)C2CC3CC(C2)CC1C3 [LC139] |  |  |  |  | CC50 at 48 h [1, 10]: 913 ± 70.7 µM; CC50 at 48 h [2, 11]: 115 ± 11.4 µM; IC50 ([3]; 48 h): 472 ± 39.2 µM; IC50 ([4]; 48 h): 507 ± 53.3 µM
C1CCC2(CC1)OOC1(OO2)C2CC3CC(C2)CC1C3 [LC137] |  |  |  |  | CC50 at 48 h [1, 10]: 443 ± 44 µM; CC50 at 48 h [2, 11]: 3569 ± 22 µM; IC50 ([3]; 48 h): 137.1 ± 0.2 µM; IC50 ([4]; 48 h): 143 ± 16.5 µM; IC50 ([5]; J774.A1, 48 h): 168 ± 8.9 µM; IC50 ([6]; J774.A1, 48 h): 88.3 ± 14.2 µM
OCC1CCC2(CC1)OOC1(O2)C2CC3CC(C2)CC1C3 (stereo not drawn) [LC93] | 12 ± 0.5 | 185 ± 16.1 | 435 ± 22.7 | 153 ± 22.4 | 
